In test [1] the target is T1, brain MAO-A (Rattus norvegicus, UniProt P21396).
T1 construct: Rat brain mitochondrial fractions were prepared; from tissue; host or cells: rat brain mitochondrial fraction
T1 sequence (P21396 1-526): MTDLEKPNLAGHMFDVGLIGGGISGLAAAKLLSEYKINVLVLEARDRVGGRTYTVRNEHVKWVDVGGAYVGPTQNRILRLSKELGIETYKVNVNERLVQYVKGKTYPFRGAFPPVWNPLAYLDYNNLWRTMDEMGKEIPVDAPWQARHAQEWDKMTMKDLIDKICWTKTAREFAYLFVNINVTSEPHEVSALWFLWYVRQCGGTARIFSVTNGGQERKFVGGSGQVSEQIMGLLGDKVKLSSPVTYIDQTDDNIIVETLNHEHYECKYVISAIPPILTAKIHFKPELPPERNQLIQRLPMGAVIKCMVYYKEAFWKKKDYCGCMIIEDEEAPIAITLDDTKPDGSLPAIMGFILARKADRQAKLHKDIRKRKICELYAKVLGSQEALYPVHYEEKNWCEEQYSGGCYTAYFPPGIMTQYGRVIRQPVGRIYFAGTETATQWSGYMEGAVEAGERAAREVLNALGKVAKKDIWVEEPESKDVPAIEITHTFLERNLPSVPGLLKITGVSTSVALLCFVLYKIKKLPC
In words: Brain MAO-A activity in CMS-treated rats. The test is classed as in vivo. The following applies: brain of CMS-treated rats, 10 mg/kg oral daily for 6 weeks. The procedure: (§1) 3. Administration and Doses • Non CMS-treated Saline group: 10 ml/kg/day. • CMS-treated Saline group: 10 ml/kg/day. • Composition I (200) group: 200 mg/kg/day. • Composition I (150) group: 150 mg/kg/day. • Fluoxetine group (positive control): 10 mg/kg/day.
(§2) Animals therein were divided randomly into the following four subgroups: • (1) Composition I (200) group: received composition I at 200 mg/kg/day; • (2) Composition I (150) group: received composition I at 150 mg/kg/day; • (3) Fluoxetine group: received fluoxetine 10 mg/kg/day; (positive control); • (4) CMS-treated saline group: received saline 10 mL/kg/day. (negative control).
(§3) 24 h after the last test of sucrose intake, between 10:00 a.m. and 11:00 a.m., all animals were decapitated quickly to get venous blood. Serum was separated by centrifugation at 3000 rpm and stored at −20° C. until assay of cortisol concentration. Brain tissues were rapidly removed on the ice-plate. The tissues were washed with cold saline, blotted dry and stored at −80° C. until assays of monoamine oxidase A and B (MAO-A and MAO-B) activity.
(§4) Rat brain mitochondrial fractions were prepared following the procedure described in Schurr and Livne, 1976. MAO activity was assessed by spectrophotometer as described in Yu et al., 2002. […] The organic phase was measured at wavelength of 280 nm and 242 nm for MAO-A and MAO-B assay with spectrophotometer, respectively. […]

For test [2], the target named is T2, brain MAO-B (Rattus norvegicus, UniProt P19643).
T2 construct: Rat brain mitochondrial fractions were prepared; from tissue; host or cells: rat brain mitochondrial fraction
T2 sequence (P19643 1-520): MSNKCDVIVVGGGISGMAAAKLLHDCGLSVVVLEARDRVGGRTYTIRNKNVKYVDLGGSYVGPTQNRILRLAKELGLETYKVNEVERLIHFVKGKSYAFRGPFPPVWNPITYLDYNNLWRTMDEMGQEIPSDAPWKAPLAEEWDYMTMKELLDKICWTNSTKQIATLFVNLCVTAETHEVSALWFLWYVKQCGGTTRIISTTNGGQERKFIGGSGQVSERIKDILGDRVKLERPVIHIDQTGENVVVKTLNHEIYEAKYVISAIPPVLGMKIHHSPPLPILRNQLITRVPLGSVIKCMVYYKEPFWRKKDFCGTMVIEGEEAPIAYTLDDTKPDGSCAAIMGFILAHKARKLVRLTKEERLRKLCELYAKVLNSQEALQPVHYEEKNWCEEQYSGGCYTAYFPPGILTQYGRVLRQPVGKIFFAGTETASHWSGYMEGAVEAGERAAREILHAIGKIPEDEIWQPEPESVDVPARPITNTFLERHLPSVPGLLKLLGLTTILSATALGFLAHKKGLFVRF
In words: Brain MAO-B activity in CMS-treated rats. The following applies: brain of CMS-treated rats, 10 mg/kg oral daily for 6 weeks. The class given is in vivo. On the procedure:
as §1, §2, §3, §4

The structures appear in SMILES notation. Counter-ions that a name gives are not always drawn.

On to `CNCCC(Oc1ccc(C(F)(F)F)cc1)c1ccccc1` (stereo not shown) [Fluoxetine, Fluoxetine Hydrochloride], for which the “MAO activity A” value in test [1] is recorded as 78.05 ± 3.68 U/g protein. The results for the inhibition at 10 mg/kg in test [1] (rat) and in test [2] (rat) were 16.4% and 54%, respectively. The “MAO activity B” value in test [2] was 54.50 ± 3.56 U/g protein.

Broadly, the inhibition is how much of the control response was suppressed.

These data come from patent US20060147569A1, “Anti-depression formulations” (priority 2005, published 2006).
